Experimental data taken from PubChem BioAssay AID2060609 (Molecular Pharmacology Branch, DTP, NCI, 2025).
“And” between values parts separate entries of the source, which are not always exact repeats. Equal values may be shown once. Each block holds one compound with its values, some of them ahead of it.

System: 855422-203-R-J1-PDC complex spheroids, viability
Assay: Anticancer human tumor 855422-203-R-J1-PDC patient-derived bladder carcinoma cell line growth inhibition [CLK]
Details: for viability, T/C: stronger effect = lower value
How it was run: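 Patient-derived tumor cells grown as complex spheroids with HUVEC endothelial cells and mesenchymal stem cells, treated with drug combinations. Concentrations descend in half-log steps from near clinical Cmax, or from 10 microM if Cmax unknown.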

[1] = curve of first compound, second compound 0.0316 µM
[2] = curve of first compound, second compound 0.1 µM
[3] = curve of first compound, second compound 0.316 µM
[4] = curve of first compound, second compound 1 µM
[5] = curve of first compound, second compound 3.16 µM
[6] = curve of first compound, second compound 10 µM
[7] = second compound 0.0316 µM, first compound 0.00316 µM
[8] = second compound 0.0316 µM, first compound 0.01 µM
[9] = second compound 0.0316 µM, first compound 0.0316 µM
[10] = second compound 0.0316 µM, first compound 0.1 µM
[11] = second compound 0.0316 µM, first compound 0.316 µM
[12] = second compound 0.0316 µM, first compound 1 µM
[13] = second compound 0.1 µM, first compound 0.00316 µM
[14] = second compound 0.1 µM, first compound 0.01 µM
[15] = second compound 0.1 µM, first compound 0.0316 µM
[16] = second compound 0.1 µM, first compound 0.1 µM
[17] = second compound 0.1 µM, first compound 0.316 µM
[18] = second compound 0.1 µM, first compound 1 µM
[19] = second compound 0.316 µM, first compound 0.00316 µM
[20] = second compound 0.316 µM, first compound 0.01 µM
[21] = second compound 0.316 µM, first compound 0.0316 µM
[22] = second compound 0.316 µM, first compound 0.1 µM
[23] = second compound 0.316 µM, first compound 0.316 µM
[24] = second compound 0.316 µM, first compound 1 µM
[25] = second compound 1 µM, first compound 0.00316 µM
[26] = second compound 1 µM, first compound 0.01 µM
[27] = second compound 1 µM, first compound 0.0316 µM
[28] = second compound 1 µM, first compound 0.1 µM
[29] = second compound 1 µM, first compound 0.316 µM
[30] = second compound 1 µM, first compound 1 µM
[31] = second compound 3.16 µM, first compound 0.00316 µM
[32] = second compound 3.16 µM, first compound 0.01 µM
[33] = second compound 3.16 µM, first compound 0.0316 µM
[34] = second compound 3.16 µM, first compound 0.1 µM
[35] = second compound 3.16 µM, first compound 0.316 µM
[36] = second compound 3.16 µM, first compound 1 µM
[37] = second compound 10 µM, first compound 0.00316 µM
[38] = second compound 10 µM, first compound 0.01 µM
[39] = second compound 10 µM, first compound 0.0316 µM
[40] = second compound 10 µM, first compound 0.1 µM
[41] = second compound 10 µM, first compound 0.316 µM
[42] = second compound 10 µM, first compound 1 µM
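Further: spheroids exposed to drugs for seven days before readout.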
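Wherever viability, T/C is given: 100% = DMSO vehicle control wells.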

Compound: CCc1c2c(nc3ccc(O)cc13)-c1cc3c(c(=O)n1C2)COC(=O)[C@]3(O)CC + CN1CCN(c2cc(C(=O)Nc3cc4cc(-c5cnn(C)c5)ccc4cn3)ccn2)CC1
- IC50 [1]: 4.23 nM
- IC50 [2]: < 3.16 nM
- IC50 [3]: < 3.16 nM
- IC50 [4]: < 3.16 nM
- IC50 [5]: < 3.16 nM
- IC50 [6]: < 3.16 nM
- viability, T/C [7]: 61.9%
- viability, T/C [8]: 14.1%
- viability, T/C [9]: 11.2%
- viability, T/C [10]: 5.5%
- viability, T/C [11]: 3.03%
- viability, T/C [12]: 2.59%
- viability, T/C [13]: 24.7%
- viability, T/C [14]: 12.1%
- viability, T/C [15]: 7.5%
- viability, T/C [16]: 4.65%
- viability, T/C [17]: 3.59%
- viability, T/C [18]: 1.4%
- viability, T/C [19]: 5.85%
- viability, T/C [20]: 5.41%
- viability, T/C [21]: 5.45%
- viability, T/C [22]: 1.97%
- viability, T/C [23]: 0.54%
- viability, T/C [24]: 0.17%
- viability, T/C [25]: 1.09%
- viability, T/C [26]: 0.16%
- viability, T/C [27]: 0.3%
- viability, T/C [28]: 0.23%
- viability, T/C [29]: 0.15%
- viability, T/C [30]: 0.33%
- viability, T/C [31]: 0.33%
- viability, T/C [32]: 0.52%
- viability, T/C [33]: 0.44%
- viability, T/C [34]: 0.3%
- viability, T/C [35]: 0.46%
- viability, T/C [36]: 0.23%
- viability, T/C [37]: 0.38%
- viability, T/C [38]: 0.17%
- viability, T/C [39]: 0.26%
- viability, T/C [40]: 2.2%
- viability, T/C [41]: 2.67%
- viability, T/C [42]: 0.19%

- IC50 (curve of compound): 71.7 nM and 72.3 nM
Compound: NC(=O)C(=Cn1cnc(-c2cc(C(F)(F)F)cc(C(F)(F)F)c2)n1)c1cncnc1
- viability, T/C (compound 0.00949 µM): 133% and 162%
- viability, T/C (compound 0.03 µM): 110% and 130%
- viability, T/C (compound 0.0949 µM): 30.4% and 25.3%
- viability, T/C (compound 0.3 µM): 11.7% and 9.71%
- viability, T/C (compound 0.949 µM): 10.5% and 7.35%
- viability, T/C (compound 3 µM): 4.97% and 5%

Compound: COc1c(OCCCN2CCOCC2)ccc2c3n(c(=NC(=O)c4cnc(N)nc4)nc12)CCN3 + CN1CCN(c2cc(C(=O)Nc3cc4cc(-c5cnn(C)c5)ccc4cn3)ccn2)CC1
- IC50 [1]: 16.8 nM
- IC50 [2]: 16.1 nM
- IC50 [3]: < 3.16 nM
- IC50 [4]: < 3.16 nM
- IC50 [5]: < 3.16 nM
- IC50 [6]: < 3.16 nM
- viability, T/C [7]: 99.6%
- viability, T/C [8]: 62.2%
- viability, T/C [9]: 36.4%
- viability, T/C [10]: 11.9%
- viability, T/C [11]: 3.81%
- viability, T/C [12]: 2.23%
- viability, T/C [13]: 72.3%
- viability, T/C [14]: 63.5%
- viability, T/C [15]: 31.1%
- viability, T/C [16]: 10.7%
- viability, T/C [17]: 3.24%
- viability, T/C [18]: 2.43%
- viability, T/C [19]: 8.06%
- viability, T/C [20]: 6.72%
- viability, T/C [21]: 3.02%
- viability, T/C [22]: 1.03%
- viability, T/C [23]: 0.35%
- viability, T/C [24]: 0.51%
- viability, T/C [25]: 0.24%
- viability, T/C [26]: 0.17%
- viability, T/C [27]: 0.09%
- viability, T/C [28]: 0.07%
- viability, T/C [29]: 0.05%
- viability, T/C [30]: 0.12%
- viability, T/C [31]: 0.37%
- viability, T/C [32]: 0.37%
- viability, T/C [33]: 0.6%
- viability, T/C [34]: 0.12%
- viability, T/C [35]: 0.13%
- viability, T/C [36]: 0.1%
- viability, T/C [37]: 0.23%
- viability, T/C [38]: 0.33%
- viability, T/C [39]: 0.19%
- viability, T/C [40]: 0.18%
- viability, T/C [41]: 0.32%
- viability, T/C [42]: 0.15%

- IC50 (curve of compound): 14.1 nM and 12.1 nM
Compound: COc1c(OCCCN2CCOCC2)ccc2c3n(c(=NC(=O)c4cnc(N)nc4)nc12)CCN3
- viability, T/C (compound 0.00316 µM): 86% and 84.6%
- viability, T/C (compound 0.01 µM): 55.7% and 52.6%
- viability, T/C (compound 0.0316 µM): 35.4% and 31.9%
- viability, T/C (compound 0.1 µM): 12.5% and 11%
- viability, T/C (compound 0.316 µM): 4.09% and 3.82%
- viability, T/C (compound 1 µM): 2.57% and 1.98%
